Measurements taken from the supplement of paper PMC10307832.

Experiments:
Experiment in all cases: relative viability (nuclei count vs DMSO), 5 days (fraction); higher = more cells survive
[1] = compound: Nc1nc2[nH]cc(CCc3ccc(C(=O)N[C@@H](CCC(=O)O)C(=O)O)cc3)c2c(=O)[nH]1 [Pemetrexed] + CC1(C)CCC(c2ccc(Cl)cc2)=C(CN2CCN(c3ccc(C(=O)NS(=O)(=O)c4ccc(N[C@H](CCN5CCOCC5)CSc5ccccc5)c(S(=O)(=O)C(F)(F)F)c4)cc3)CC2)C1 [Navitoclax] (partner 0.5 µM)
In short: (§1)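 After 5 days of treatment, lung cancer cells in 1536-well plates were fixed and stained in a single step (final 0.05% Triton X-100, 1% formaldehyde, 1 ug/ml Hoechst) and their nuclei counted on 4× images. Treatment had been applied by pin tool the day after seeding as one drug alone or as a fixed anchor-drug dose with five library-drug doses (not always all listed) in √10 steps. Relative viability is the nuclei count of treated wells divided by that of vehicle wells, and values are medians of duplicate plates.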

[2] = compound: CC[C@H](Nc1ncnc2[nH]cnc12)c1nc2cccc(F)c2c(=O)n1-c1ccccc1 [Idelalisib] + Cc1nc(Nc2ncc(C(=O)Nc3c(C)cccc3Cl)s2)cc(N2CCN(CCO)CC2)n1 [Dasatinib] (partner 0.075 µM)
In short: as §1

[3] = compound: Nc1nc2[nH]cc(CCc3ccc(C(=O)N[C@@H](CCC(=O)O)C(=O)O)cc3)c2c(=O)[nH]1 [Pemetrexed] + C[C@@H](Oc1cc(-c2cnn(C3CCNCC3)c2)cnc1N)c1c(Cl)ccc(F)c1Cl [Crizotinib] (partner 1 µM)
In short: as §1

[4] = compound: Nc1nc2[nH]cc(CCc3ccc(C(=O)N[C@@H](CCC(=O)O)C(=O)O)cc3)c2c(=O)[nH]1 [Pemetrexed] + N=C(N)NC(=N)NCCc1ccccc1 [Phenformin] (partner 250 µM)
In short: as §1

UMC-11
relative viability ([1]; first compound 0.002 µM): 0.292
relative viability ([1]; first compound 0.006325 µM): 0.283
relative viability ([1]; first compound 0.02 µM): 0.354
relative viability ([1]; first compound 0.06325 µM): 0.312
relative viability ([1]; first compound 0.2 µM): 0.344
relative viability ([2]; first compound 0.04 µM): 0.349
relative viability ([2]; first compound 0.1265 µM): 0.492
relative viability ([2]; first compound 0.4 µM): 0.391
relative viability ([2]; first compound 1.265 µM): 0.564
relative viability ([2]; first compound 4 µM): 0.474
relative viability ([3]; first compound 0.002 µM): 0.603
relative viability ([3]; first compound 0.006325 µM): 0.635
relative viability ([3]; first compound 0.02 µM): 0.666
relative viability ([3]; first compound 0.06325 µM): 0.715
relative viability ([3]; first compound 0.2 µM): 0.566
relative viability ([4]; first compound 0.002 µM): 0.325
relative viability ([4]; first compound 0.006325 µM): 0.311
relative viability ([4]; first compound 0.02 µM): 0.312
relative viability ([4]; first compound 0.06325 µM): 0.334
relative viability ([4]; first compound 0.2 µM): 0.347
